From US20110230476A1, “PI3 KINASE INHIBITORS AND USES THEREOF” (AVILA THERAPEUTICS, INC., priority 2009, published 2011) come the findings set out here.

For this test, the target named is T1, PI3Kα (p110α/p85α) (Homo sapiens, UniProt P42336).
T1 construct: purchased BPS Bioscience (San Diego, Calif.) or Millipore (Billerica, Mass.)
T1 sequence (P42336 whole entry): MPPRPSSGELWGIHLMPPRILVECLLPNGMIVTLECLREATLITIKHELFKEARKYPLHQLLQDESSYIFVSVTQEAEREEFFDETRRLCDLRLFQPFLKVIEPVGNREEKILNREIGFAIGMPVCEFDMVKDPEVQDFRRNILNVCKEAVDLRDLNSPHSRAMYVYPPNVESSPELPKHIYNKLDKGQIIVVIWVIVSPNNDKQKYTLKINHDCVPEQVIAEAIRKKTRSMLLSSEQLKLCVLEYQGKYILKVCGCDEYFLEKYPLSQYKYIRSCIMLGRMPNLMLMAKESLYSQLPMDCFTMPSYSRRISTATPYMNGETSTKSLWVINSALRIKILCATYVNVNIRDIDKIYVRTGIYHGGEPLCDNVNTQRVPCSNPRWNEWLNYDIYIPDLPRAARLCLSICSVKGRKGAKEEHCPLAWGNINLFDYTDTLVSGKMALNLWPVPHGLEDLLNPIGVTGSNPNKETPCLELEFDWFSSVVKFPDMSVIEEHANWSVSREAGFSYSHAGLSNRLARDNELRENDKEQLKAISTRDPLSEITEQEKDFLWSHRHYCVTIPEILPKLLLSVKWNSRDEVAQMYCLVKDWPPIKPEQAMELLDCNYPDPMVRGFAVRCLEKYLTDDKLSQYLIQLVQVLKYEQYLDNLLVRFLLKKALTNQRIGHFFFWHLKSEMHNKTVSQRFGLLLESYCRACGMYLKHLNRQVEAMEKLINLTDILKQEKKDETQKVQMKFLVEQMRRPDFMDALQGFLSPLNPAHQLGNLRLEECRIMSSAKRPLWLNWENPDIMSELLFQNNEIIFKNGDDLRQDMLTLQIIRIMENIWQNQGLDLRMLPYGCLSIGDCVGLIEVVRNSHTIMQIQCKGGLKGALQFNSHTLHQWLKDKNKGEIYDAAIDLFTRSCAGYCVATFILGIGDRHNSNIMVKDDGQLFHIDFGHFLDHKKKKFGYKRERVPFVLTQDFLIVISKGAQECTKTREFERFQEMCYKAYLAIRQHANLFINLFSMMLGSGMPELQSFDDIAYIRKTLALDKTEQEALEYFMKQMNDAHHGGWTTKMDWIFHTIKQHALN
T1 sequence (P27986 whole entry partner): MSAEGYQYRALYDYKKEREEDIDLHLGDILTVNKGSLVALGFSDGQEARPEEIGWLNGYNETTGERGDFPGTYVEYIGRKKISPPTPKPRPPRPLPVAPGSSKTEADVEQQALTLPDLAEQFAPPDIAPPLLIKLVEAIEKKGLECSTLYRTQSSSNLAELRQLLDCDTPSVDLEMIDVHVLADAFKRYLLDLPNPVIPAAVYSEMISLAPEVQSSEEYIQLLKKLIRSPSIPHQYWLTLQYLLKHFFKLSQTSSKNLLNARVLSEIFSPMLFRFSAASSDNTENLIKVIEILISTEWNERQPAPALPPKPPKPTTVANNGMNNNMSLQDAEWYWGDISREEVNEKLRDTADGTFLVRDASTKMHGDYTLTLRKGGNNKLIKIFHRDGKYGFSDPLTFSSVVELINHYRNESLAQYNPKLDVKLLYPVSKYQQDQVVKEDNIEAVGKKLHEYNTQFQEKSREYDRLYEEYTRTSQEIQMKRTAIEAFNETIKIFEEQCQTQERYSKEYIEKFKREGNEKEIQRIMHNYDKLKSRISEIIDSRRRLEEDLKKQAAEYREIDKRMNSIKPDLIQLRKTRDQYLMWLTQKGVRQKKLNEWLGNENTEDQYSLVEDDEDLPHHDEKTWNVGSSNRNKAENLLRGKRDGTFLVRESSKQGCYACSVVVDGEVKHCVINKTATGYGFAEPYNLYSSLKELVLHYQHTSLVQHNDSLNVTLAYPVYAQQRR
Kind of test: HTRF assay, potency against active PI3Kα. Particulars: HTRF; [ATP]=50 μM, [di-C8-PIP2]=10 μM; 30 min pre-incubation; read-out: PI3Kα Inhibition. The class given is biochemical. Here is the method: Homogeneous Time Resolved Fluorescence (HTRF) Assay Protocol for Potency Assessment Against the Active Forms of PI3Kα, PI3Kβ, and PI3Kγ
The mechanics of the assay platform are best described by the vendor (Millipore, Billerica, Mass.) on their website at the following URL: www.millipore.com/coa/tech1/74jt4z.
Briefly, Stop solution (Stop A, #33-007 and Stop B, #33-009; 3:1 ratio) and Detection Mix (from DMC, #33-015 with DMA, #33-011 and DMB, #33-013; 18:1:1 ratio) were prepared as recommended by the manufacturer about 2 hrs prior to use. […] Lipid kinase reactions were started with the addition of 5 μL of ATP solution, mixed for 15 sec on a rotary plate shaker and incubated for 30-60 minutes at 25° C. Next, reactions were stopped with a 5 μL addition of Stop solution immediately followed by a 5 μL volume of Detection Mix. […] At the conclusion of each assay, the HTRF ratio from fluorescence emission values for each well was calculated and % Inhibition determined from averaged controls wells (+/−PI3K enzyme). % Inhibition values for each compound were then plotted against inhibitor concentration to estimate IC50 from log [Inhibitor] vs Response, Variable Slope model in GraphPad Prism from GraphPad Software (San Diego, Calif.).
(In TR-FRET formats the signal depends on donor and acceptor labels being close together.)
Take `CC(C)OC/C=C/C(=O)CCC(=O)N1CCN(Cc2cc3nc(-c4cccc5[nH]ncc45)nc(N4CCOCC4)c3s2)CC1` [II-a-62, (E)-1-(4-((2-(1H-indazol-4-yl)-4-morpholinothieno[3,2-d]pyrimidin-6-yl)methyl)piperazin-1-yl)-7-isopropoxyhept-5-ene-1,4-dione]: the IC50 lay in the range of 10 to 100 nM.

On to `C=CC(=O)N[C@H]1CC[C@H](C(=O)N2CCN(Cc3cc4nc(-c5cccc6[nH]ncc56)nc(N5CCOCC5)c4s3)CC2)CC1` [II-a-100], for which the IC50 lay in the range of 100 to 1000 nM. Regarding `CC(C)=CC(=O)c1ccc(CCNC(=O)c2cc(-c3cccc4[nH]ncc34)nc(N3CCOCC3)c2)cc1` [XII-12], the IC50 was greater than 1000 nM. The figure for `C=CC(=O)N[C@H]1CCC[C@@H](C(=O)N2CCN(Cc3cc4nc(-c5cccc6[nH]ncc56)nc(N5CCOCC5)c4s3)CC2)C1` [II-a-98] is 100 to 1000 nM. With `C/C=C/C(=O)CCCC(=O)N1CCN(c2ccc(-c3ccnc4ccc(/C=C5\SC(=O)NC5=O)cc34)cc2)CC1` [V-16, (Z)-5-((4-(4-(4-((E)-5-oxooct-6-enoyl)piperazin-1-yl)phenyl)quinolin-6-yl)methylene)thiazolidine-2,4-dione], the IC50 is less than 10 nM.

As to `C/C=C/C(=O)CCC(=O)N1CCN(c2ccc(-c3cc4nc(-c5cccc(O)c5)nc(N5CCOCC5)c4s3)cc2)CC1` [II-a-102, (E)-1-(4-(4-(2-(3-hydroxyphenyl)-4-morpholinothieno[3,2-d]pyrimidin-6-yl)phenyl)piperazin-1-yl)hept-5-ene-1,4-dione], the IC50 is less than 10 nM. `C=CC(=O)N1CCN(c2ccc(-c3ccnc4ccc(/C=C5\SC(=O)NC5=O)cc34)cn2)CC1` [V-4, (Z)-5-((4-(6-(4-acryloylpiperazin-1-yl)pyridin-3-yl)quinolin-6-yl)methylene)thiazolidine-2,4-dione]: the IC50 was in the range of 10 to 100 nM. As to `CC(C)=CC(=O)C(=O)Nc1ccc(C#Cc2cc(-c3cnc(N)nc3)nc(N3CCOCC3)c2)cc1` [XII-22, N-(4-((2-(2-aminopyrimidin-5-yl)-6-morpholinopyridin-4-yl)ethynyl)phenyl)-4-methyl-2-oxopent-3-enamide], the IC50 was less than 10 nM.

For `C=CC(=O)NCC(=O)N1CCCc2cccc(-c3cc4nc(-c5cccc(O)c5)nc(N5CCOCC5)c4s3)c21` [II-a-124, N-(2-(8-(2-(3-hydroxyphenyl)-4-morpholinothieno[3,2-d]pyrimidin-6-yl)-3,4-dihydroquinolin-1(2H)-yl)-2-oxoethyl)acrylamide], the IC50 is 100 to 1000 nM.

Take `C=CC(=O)N1CCc2ccc(-c3ccnc4ccc(/C=C5\SC(=O)NC5=O)cc34)cc2C1` [V-19, (Z)-5-((4-(2-acryloyl-1,2,3,4-tetrahydroisoquinolin-7-yl)quinolin-6-yl)methylene)thiazolidine-2,4-dione]: the IC50 lay in the range of 10 to 100 nM. With `C=CC(=O)Nc1ccc(CCNC(=O)c2cc(-c3cccc4[nH]ncc34)nc(N3CCOCC3)c2)cc1` [XII-13, N-(4-acrylamidophenethyl)-2-(1H-indazol-4-yl)-6-morpholinoisonicotinamide], the IC50 was greater than 1000 nM.

As for `C/C=C/C(=O)CCCC(=O)Nc1ccc2c(c1)N(c1nc3c(s1)C(=O)NC(C)(C)C3)CCO2` [VI-24, (E)-N-(4-(6,6-dimethyl-4-oxo-4,5,6,7-tetrahydrothiazolo[5,4-c]pyridin-2-yl)-3,4-dihydro-2H-benzo[b][1,4]oxazin-6-yl)-5-oxooct-6-enamide], the IC50 is greater than 1000 nM. Consider `C/C=C/C(=O)CCC(=O)N1CCc2ccc(-c3cc4nc(-c5cccc(O)c5)nc(N5CCOCC5)c4s3)cc2C1` [II-a-67, (E)-1-(7-(2-(3-hydroxyphenyl)-4-morpholinothieno[3,2-d]pyrimidin-6-yl)-3,4-dihydroisoquinolin-2(1H)-yl)hept-5-ene-1,4-dione], for which the IC50 is less than 10 nM. In the case of `C/C=C/C(=O)CCCC(=O)N1CCc2ccc(-c3ccnc4ccc(/C=C5\SC(=O)NC5=O)cc34)cc2C1` [V-17, (Z)-5-((4-(2-((E)-5-oxooct-6-enoyl)-1,2,3,4-tetrahydroisoquinolin-7-yl)quinolin-6-yl)methylene)thiazolidine-2,4-dione] it was 10 to 100 nM; in that of `C=CC(=O)N1CCC(O)(CCc2cc3nc(-c4cccc(O)c4)nc(N4CCOCC4)c3s2)CC1` [II-a-111, 1-(4-hydroxy-4-(2-(2-(3-hydroxyphenyl)-4-morpholinothieno[3,2-d]pyrimidin-6-yl)ethyl)piperidin-1-yl)prop-2-en-1-one], 10 to 100 nM; in that of `CCC(=O)NC1CCN(c2ccc(-c3cc4nc(-c5cccc(O)c5)nc(N5CCOCC5)c4s3)cc2)CC1` [II^R-a-81, N-(1-(4-(2-(3-hydroxyphenyl)-4-morpholinothieno[3,2-d]pyrimidin-6-yl)phenyl)piperidin-4-yl)propionamide], 100 to 1000 nM.

Turning to `CC(C)=CC(=O)C1(C(=O)N2CCC(C#Cc3cc(-c4cnc(N)nc4)nc(N4CCOCC4)c3)CC2)CC1` [XII-33, 1-(1-(4-((2-(2-aminopyrimidin-5-yl)-6-morpholinopyridin-4-yl)ethynyl)piperidine-1-carbonyl)cyclopropyl)-3-methylbut-2-en-1-one], the IC50 lay in the range of 100 to 1000 nM. Regarding `C=CC(=O)NCC(=O)N1CCc2cc(-c3cc4nc(-c5cccc(O)c5)nc(N5CCOCC5)c4s3)ccc2C1` [II-a-121, N-(2-(6-(2-(3-hydroxyphenyl)-4-morpholinothieno[3,2-d]pyrimidin-6-yl)-3,4-dihydroisoquinolin-2(1H)-yl)-2-oxoethyl)acrylamide], the IC50 lay within 100 to 1000 nM. Consider `C=CC(=O)N1CCN(c2ccc(-c3cc4nc(-c5cccc6[nH]ncc56)nc(N5CCOCC5)c4s3)cc2)CC1` [II-a-78, 1-(4-(4-(2-(1H-indazol-4-yl)-4-morpholinothieno[3,2-d]pyrimidin-6-yl)phenyl)piperazin-1-yl)prop-2-en-1-one], for which the IC50 was in the range of 100 to 1000 nM. On to `C/C=C/C(=O)CCC(=O)NCc1ccc(-c2cc3nc(-c4cccc(O)c4)nc(N4CCOCC4)c3s2)cc1` [II-a-80, (E)-N-(4-(2-(3-hydroxyphenyl)-4-morpholinothieno[3,2-d]pyrimidin-6-yl)benzyl)-4-oxohept-5-enamide], for which the IC50 is less than 10 nM. In the case of `CC(C)=CC(=O)CCCC(=O)N1CC=C(c2cc3nc(-c4cnc(N)nc4)nc(N4CCOCC4)c3s2)CC1` [II-a-166, 1-(4-(2-(2-aminopyrimidin-5-yl)-4-morpholinothieno[3,2-d]pyrimidin-6-yl)-5,6-dihydropyridin-1(2H)-yl)-7-methyloct-6-ene-1,5-dione], the IC50 is less than 10 nM.

As to `C=CC(=O)N1CCC(N2CCN(C(=O)c3cc4nc(-c5cccc(O)c5)nc(N5CCOCC5)c4s3)CC2)CC1` [II-a-120, 1-(4-(4-(2-(3-hydroxyphenyl)-4-morpholinothieno[3,2-d]pyrimidine-6-carbonyl)piperazin-1-yl)piperidin-1-yl)prop-2-en-1-one], the IC50 was in the range of 100 to 1000 nM. `CCC(=O)NCc1cccc(-c2cc3nc(-c4cccc(O)c4)nc(N4CCOCC4)c3s2)c1` [II^R-a-64, N-(3-(2-(3-hydroxyphenyl)-4-morpholinothieno[3,2-d]pyrimidin-6-yl)benzyl)propionamide]: the IC50 was in the range of 100 to 1000 nM. As to `C=CC(=O)N1CCN(C2CCC(O)(c3cc4nc(-c5cccc6[nH]ncc56)nc(N5CCOCC5)c4s3)CC2)CC1` (mixture of isomers) [II-a-152, 1-(4-(4-(2-(1H-indazol-4-yl)-4-morpholinothieno[3,2-d]pyrimidin-6-yl)-4-hydroxycyclohexyl)piperazin-1-yl)prop-2-en-1-one], the IC50 was 100 to 1000 nM. On to `CC(C)=CC(=O)CCC(=O)N1CCN(c2ccc(-c3ccnc4ccc(/C=C5\SC(=O)NC5=O)cc34)cn2)CC1` [V-18, (Z)-5-((4-(6-(4-(6-methyl-4-oxohept-5-enoyl)piperazin-1-yl)pyridin-3-yl)quinolin-6-yl)methylene)thiazolidine-2,4-dione], for which the IC50 is less than 10 nM. As for `C=CC(=O)Nc1ccc(C(=O)N2CC=C(c3cc4nc(-c5cccc(O)c5)nc(N5CCOCC5)c4s3)CC2)cc1OCCCN` [II-a-155, N-(2-(3-aminopropoxy)-4-(4-(2-(3-hydroxyphenyl)-4-morpholinothieno[3,2-d]pyrimidin-6-yl)-1,2,3,6-tetrahydropyridine-1-carbonyl)phenyl)acrylamide], the IC50 was 10 to 100 nM. With `C=CC(=O)Nc1ccc(C(=O)N2CCN(c3cc(-c4cnc(N)nc4)nc(N4CCOCC4)c3)CC2)cc1` [XII-53, N-(4-(4-(2-(2-aminopyrimidin-5-yl)-6-morpholinopyridin-4-yl)piperazine-1-carbonyl)phenyl)acrylamide], the IC50 lay within 100 to 1000 nM. The figure for `C=CC(=O)Nc1ccc(CCNC(=O)c2cc3nc(-c4cccc5[nH]ncc45)nc(N4CC5(COC5)C4)c3s2)cc1` [II-a-151, N-(4-acrylamidophenethyl)-2-(1H-indazol-4-yl)-4-(2-oxa-6-azaspiro[3.3]heptan-6-yl)thieno[3,2-d]pyrimidine-6-carboxamide] is greater than 1000 nM; for `C/C=C/C(=O)CCC(=O)N1CCC(n2nc(-c3ccc(OC)c(OC)c3)c3c(N)ncnc32)CC1` [XI-1, (E)-1-(4-(4-amino-3-(3,4-dimethoxyphenyl)-1H-pyrazolo[3,4-d]pyrimidin-1-yl)piperidin-1-yl)hept-5-ene-1,4-dione] it is greater than 1000 nM.
